# Values of other authors, collected in patent US20040072765A1, “Cardiovascular and bone treatment using isoflavones” (Novogen Research Pty Ltd., priority 1999, published 2004).
# What was measured:
# [1] = low doses, rats
# [2] = men and women
SMILES,cortical and trabecular bone density [1],increase in HDL levels [2]
"O=c1c(-c2ccc(O)cc2)coc2cc(O)cc(O)c12 [Genistein, genistein]",increased,
CCOC(=O)C(C)(C)Oc1ccc(Cl)cc1 [clofibrinate],,about 10%
